Patent US9745355B2, “Binding-site modified lectins and uses thereof” (SmartCells, Inc., priority 2009, dated 2017)

Tested on: formaldehyde-stabilized rabbit erythrocytes
Assay: MAC assay (minimum agglutinating concentration)
Type: cell-based
Settings: 2% v/v suspension of formaldehyde-stabilized rabbit erythrocytes
Excerpt: Enzymol. 83:368-373, 1982. Formaldehyde-treated rabbit erythrocytes, prepared by published procedures (Nowak et al., Biochim. Biophys. […] The MAC was defined as the lectin protein concentration (exclusive of attached chemical compounds) in the highest dilution showing visible agglutination. […] An aliquot of the formaldehyde-treated Rabbit erythrocytes was then pipetted into each well. At low lectin concentrations, there was insufficient lectin to form a network of crosslinked cells and the cells dropped to the bottom of the V-well forming what looks like a dark pin-point circle at the bottom of the plate when viewed from above. However, once the lectin concentration reached the minimum agglutination concentration (MAC), the lectin molecules began crosslinking the saccharide receptors on the erythrocyte surfaces, resulting in a network that cannot settle to the bottom of the V-well forming what looks like a large, opaque, diffuse circle when viewed from above. The lowest concentration that produces the large diffuse circle is the MAC value for a particular formulation.

For concanavalin A [Umodified], the “MAC” value was under 1 µg/mL.
